By EC50 is commonly meant the concentration at which the effect is half-maximal. What is called IC50 is the concentration that gives 50% inhibition. The term AC50 denotes the midpoint of the concentration-response curve, whichever way the signal moves. By CC50 is commonly meant the concentration giving 50% cytotoxicity.

These results are taken from ChEMBL document CHEMBL1201862, “PubChem BioAssay data set” (2004).

One assay has as its system HEK293. As to the kind of experiment: Fluorescence-based counterscreen for potentiators or agonists of NPY-Y2: cell-based high-throughput dose response assay to identify inhibitors of cyclic nucleotide gated ion channel (CNGC) activity. In this assay, the parental HEK293 cell line transfected with a cyclic-nucleotide gated ion channel (CNGC)-based cAMP sensor is used to measure inhibition of isoproterenol-induced CNGC activity by test compound. It counts as functional. The following applies: Homo sapiens. In general terms: Counterscreens check selectivity or assay interference.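 Further: stimulus is 1 µM isoproterenol at EC100 plus PDE inhibitor Ro 20-1724 at 25 µM.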

The target in assay [1] is Neuropeptide Y receptor type 2 (Homo sapiens, UniProt P49146). The assay can be described thus: Fluorescence-based cell-based high-throughput dose response assay for agonists of NPY-Y2. [Related pubchem assays: 1703 (Screening assay (CNGC inhibitors).), 1359 (Screening assay (NPY-Y2 potentiators or agonists).), 1304 (Screening assay (NPY-Y1 potentiators or agonists).), 1710 (Screening assay (NPY-Y2 agonists).), 1791 (Summary AID.)]. In kind it is functional.
Sequence of Neuropeptide Y receptor type 2 (P49146 whole entry): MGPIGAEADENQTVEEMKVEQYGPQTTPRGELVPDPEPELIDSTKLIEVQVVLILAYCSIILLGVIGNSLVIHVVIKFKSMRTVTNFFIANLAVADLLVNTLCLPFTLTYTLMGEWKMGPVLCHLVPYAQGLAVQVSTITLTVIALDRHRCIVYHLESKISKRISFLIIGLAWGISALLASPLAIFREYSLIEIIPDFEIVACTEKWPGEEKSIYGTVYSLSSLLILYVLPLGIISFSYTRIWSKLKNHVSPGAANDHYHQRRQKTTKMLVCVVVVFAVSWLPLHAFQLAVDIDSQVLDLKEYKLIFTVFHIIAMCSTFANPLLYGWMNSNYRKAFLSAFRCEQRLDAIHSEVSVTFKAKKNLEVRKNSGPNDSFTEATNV

A further assay deals with Galanin receptor type 2 (Homo sapiens, UniProt O43603). The assay can be described thus: Dose Response cell-based high-throughput screening assay to identify antagonists of galanin receptor 2 (GALR2). [Related pubchem assays: 828, 866 ]. It counts as functional.
Sequence of Galanin receptor type 2 (O43603 whole entry): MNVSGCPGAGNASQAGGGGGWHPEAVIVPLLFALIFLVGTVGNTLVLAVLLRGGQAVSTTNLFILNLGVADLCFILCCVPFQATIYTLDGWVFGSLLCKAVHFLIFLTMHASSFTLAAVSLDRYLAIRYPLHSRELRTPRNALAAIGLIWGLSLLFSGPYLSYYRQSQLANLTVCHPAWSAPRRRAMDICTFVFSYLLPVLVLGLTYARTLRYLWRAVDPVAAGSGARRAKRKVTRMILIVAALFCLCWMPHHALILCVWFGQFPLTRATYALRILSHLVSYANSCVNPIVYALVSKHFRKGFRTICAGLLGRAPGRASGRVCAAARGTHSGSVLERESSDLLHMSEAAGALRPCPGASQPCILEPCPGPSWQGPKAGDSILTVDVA
For assay [2], the target named is Neuropeptide Y receptor type 1 (Homo sapiens, UniProt P25929). The assay can be described thus: Fluorescence-based counterscreen for agonists of NPY-Y2: cell-based high-throughput dose response assay for agonists of NPY-Y1. It counts as functional.
Sequence of Neuropeptide Y receptor type 1 (P25929 whole entry): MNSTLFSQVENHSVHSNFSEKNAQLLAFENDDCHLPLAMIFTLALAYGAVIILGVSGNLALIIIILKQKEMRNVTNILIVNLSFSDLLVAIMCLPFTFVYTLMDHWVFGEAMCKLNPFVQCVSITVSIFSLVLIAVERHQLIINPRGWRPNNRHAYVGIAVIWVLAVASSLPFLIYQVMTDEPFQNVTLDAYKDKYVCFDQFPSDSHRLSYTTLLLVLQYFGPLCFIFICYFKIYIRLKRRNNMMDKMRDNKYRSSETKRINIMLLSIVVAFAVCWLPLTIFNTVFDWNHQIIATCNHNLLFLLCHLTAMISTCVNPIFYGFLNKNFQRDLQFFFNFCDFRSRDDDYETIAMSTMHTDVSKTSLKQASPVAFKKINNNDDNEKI
The next assay concerns INS1. As to the kind of experiment: beta cell apoptosis inhibitors, cytokine rescue, dose response, luminescence, retest (AID 449756).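 Further: cell death triggered by IL-1 beta plus TNF-alpha plus IFN-gamma mixture; protective hits raise ATP signal compared with cytokine alone wells.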 It counts as functional, cell-based. The following applies: Rattus norvegicus.
Assay [3] is described as follows: miR-122 activators in hepatoma reporter cells, dose response, cell-based, Huh7 psiCHECK-miR122, Renilla luciferase, cherry-picked (AID 651956).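 Further: huh7 hepatoma cells stably carrying a psiCHECK-2 miR-122 sensor plasmid; renilla luciferase signal reporting endogenous miR-122 activity after 48 h compound exposure.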 In kind it is functional.
The nature of assay [4]: off-target signal loss in HeLa-CEM21 co-culture – HeLa F-luc CTL cells, cherry-picked, counter-screen for HIV-1 Env fusion inhibitor project, dose response (AID 652040).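 Further: potency for signal decrease marking cytotoxic or nonspecific inhibition.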 In kind it is functional, cell-based.
Assay [5] in a line: inhibitors of clade B AD8 Env fusion, dose response, cell-based, cherry-pick (AID 652062).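 Further: luciferase signal from cell-cell fusion driven by HIV-1 clade B AD8 Env; potency is for inhibitors of fusion seen as a drop in luminescence.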 It counts as functional.
Assay [6] has as its target T1, COUP transcription factor 2 (Homo sapiens, UniProt P24468).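 Further: HEK293 cells transiently cotransfected with COUP-TFII expression vector and reporter; luciferase reporter luminescence driven by COUP-TFII from the pX2-168 reporter plasmid.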
T1 sequence (P24468 whole entry): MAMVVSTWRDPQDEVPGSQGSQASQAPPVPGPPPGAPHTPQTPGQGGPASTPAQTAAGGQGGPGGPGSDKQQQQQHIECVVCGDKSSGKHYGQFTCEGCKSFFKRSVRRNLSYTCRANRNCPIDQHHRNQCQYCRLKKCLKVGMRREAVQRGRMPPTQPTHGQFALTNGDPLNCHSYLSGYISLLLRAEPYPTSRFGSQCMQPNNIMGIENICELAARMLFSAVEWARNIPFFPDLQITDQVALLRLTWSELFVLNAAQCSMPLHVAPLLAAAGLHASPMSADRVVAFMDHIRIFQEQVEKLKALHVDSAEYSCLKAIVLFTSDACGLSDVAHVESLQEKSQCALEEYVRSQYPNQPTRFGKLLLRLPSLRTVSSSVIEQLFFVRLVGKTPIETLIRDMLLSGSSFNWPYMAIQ
As to the kind of experiment: Luminescence-based cell-based high throughput dose response assay to identify inhibitors of COUP-TFII (NR2F2). It counts as functional.

The nature of assay [7]: HEK293T cytotoxicity, dose response, cytotoxicity control for miR-122 modulator project, cell-based, inhibitor set, cherry-pick, set 2 (AID 720697). It counts as functional.
Assay [8] is described as follows: HEK293T cytotoxicity, dose response, cytotoxicity control for miR-122 modulator project, cell-based, activator set, cherry-pick (AID 720690).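 Further: HEK293T human cells scored for general mammalian cytotoxicity.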 In kind it is functional.
Assay [9] addresses G2/mitotic-specific cyclin-B1 (Homo sapiens, UniProt P14635). The assay can be described thus: Counterscreen assay for inhibitors of Wee1 degradation: dose response cell-based assay to identify inhibitors of cyclin B degradation. [Related pubchem assays: 1410, 1321 ]. It counts as functional.
The target of a further assay is Wee1-like protein kinase (Homo sapiens, UniProt P30291). As to the kind of experiment: Dose Response Cell-based Assay for Inhibitors of Wee1 Degradation. [Related pubchem assays: 1410, 1321 ]. In kind it is functional.
Sequence of Wee1-like protein kinase (P30291 whole entry): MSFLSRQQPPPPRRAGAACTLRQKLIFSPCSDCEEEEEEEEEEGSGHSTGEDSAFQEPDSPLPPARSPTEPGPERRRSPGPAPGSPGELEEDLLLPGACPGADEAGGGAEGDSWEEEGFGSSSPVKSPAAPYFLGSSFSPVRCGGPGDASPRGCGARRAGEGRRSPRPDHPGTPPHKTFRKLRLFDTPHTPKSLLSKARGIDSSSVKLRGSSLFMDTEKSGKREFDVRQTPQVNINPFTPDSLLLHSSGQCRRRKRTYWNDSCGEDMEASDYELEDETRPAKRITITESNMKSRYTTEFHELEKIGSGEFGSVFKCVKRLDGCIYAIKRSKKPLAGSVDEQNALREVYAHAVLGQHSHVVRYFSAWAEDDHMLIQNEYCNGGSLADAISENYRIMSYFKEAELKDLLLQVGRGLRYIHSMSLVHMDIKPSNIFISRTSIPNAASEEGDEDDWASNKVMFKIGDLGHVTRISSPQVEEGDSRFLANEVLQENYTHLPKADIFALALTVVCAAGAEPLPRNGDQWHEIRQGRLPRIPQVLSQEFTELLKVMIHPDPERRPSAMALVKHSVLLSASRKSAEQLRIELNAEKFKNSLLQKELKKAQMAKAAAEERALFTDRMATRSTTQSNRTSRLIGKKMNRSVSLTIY
Assay [10] in a line: HEp-2 cell cytotoxicity, dose response, cytotoxicity control for RSV inhibitor project, HTS (AID 2410). In kind it is functional. The settings on record: human respiratory syncytial virus.
The next assay deals with NS3 (Hepatitis C virus, UniProt A3EZJ3). The assay can be described thus: PubChem AID 2173. On the set-up: species or system Hepacivirus hominis.
Sequence of NS3 (A3EZJ3 whole entry): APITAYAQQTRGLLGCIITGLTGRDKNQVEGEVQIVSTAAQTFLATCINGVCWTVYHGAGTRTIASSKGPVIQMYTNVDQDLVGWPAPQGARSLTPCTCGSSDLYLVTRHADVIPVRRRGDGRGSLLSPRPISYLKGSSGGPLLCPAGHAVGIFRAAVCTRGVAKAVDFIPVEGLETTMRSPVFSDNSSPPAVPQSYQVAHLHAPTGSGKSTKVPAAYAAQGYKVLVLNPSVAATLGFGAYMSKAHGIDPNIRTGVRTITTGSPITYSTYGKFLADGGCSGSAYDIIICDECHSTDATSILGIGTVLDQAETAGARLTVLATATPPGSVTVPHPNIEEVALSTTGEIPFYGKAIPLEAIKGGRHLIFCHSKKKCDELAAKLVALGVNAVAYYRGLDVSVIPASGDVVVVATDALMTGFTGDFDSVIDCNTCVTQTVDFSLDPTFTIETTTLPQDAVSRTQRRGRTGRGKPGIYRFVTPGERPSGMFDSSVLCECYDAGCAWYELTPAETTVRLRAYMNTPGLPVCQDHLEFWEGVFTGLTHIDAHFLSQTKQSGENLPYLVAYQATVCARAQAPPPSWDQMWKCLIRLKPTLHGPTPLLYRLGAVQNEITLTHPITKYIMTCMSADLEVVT

Active and inactive are the calls of the source. A value given as a limit tells only on which side of the number the result lay.

Sequence of G2/mitotic-specific cyclin-B1 (P14635 whole entry): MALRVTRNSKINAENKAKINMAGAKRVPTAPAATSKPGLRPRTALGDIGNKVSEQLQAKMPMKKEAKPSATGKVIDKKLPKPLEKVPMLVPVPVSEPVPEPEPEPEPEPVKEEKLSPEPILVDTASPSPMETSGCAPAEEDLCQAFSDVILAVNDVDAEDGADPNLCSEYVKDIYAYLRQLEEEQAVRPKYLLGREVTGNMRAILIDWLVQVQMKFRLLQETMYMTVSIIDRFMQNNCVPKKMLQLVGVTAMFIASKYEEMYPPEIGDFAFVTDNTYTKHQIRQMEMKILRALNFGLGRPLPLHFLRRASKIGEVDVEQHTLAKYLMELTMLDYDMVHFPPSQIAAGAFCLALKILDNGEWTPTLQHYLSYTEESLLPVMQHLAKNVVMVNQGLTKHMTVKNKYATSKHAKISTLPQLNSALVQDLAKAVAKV

With `CC(=O)c1c(C)[nH]c(C(=O)OCCCCN2C(=O)c3ccccc3C2=O)c1C`, the 50% effective concentration (EC50) (with HEK293; in assay [1]; in assay [2]) was > 35.4 µM (not active) in each case. Further, the concentration for half-maximal inhibition (IC50) against Galanin receptor type 2 was > 42 µM (not active); in [6] it was 7.55 µM (active). The AC50 in the assay with INS1 is 6.57 µM (active); in assay [3], 38.4 µM (active); in assay [4] it was > 70 µM (inactive); in [5], 6.13 µM (active); in [7], 7.33 µM (active); in assay [8] it was 12.5 µM (active).
Turning to `COc1ccccc1-c1ccc(SCc2ccccc2F)nn1`, the EC50 (in assay [9]; at Wee1-like protein kinase) was > 49.7 µM (not active) each time.
Regarding `Cc1cccc(NC2=NC(=O)/C(=C/C=C/c3ccco3)S2)c1C`, the CC50 in assay [10] is 12.1 µM (active). Moreover, at NS3, the IC50 was 5.49 µM (active).
